# In patent US7709454B2, “Methods and compositions for inhibiting tumorigenesis” (New York University, priority 1997, dated 2010):
# Legend:
# [1] = test system: human melanoma primary cultures and cell lines; assay: BrdU incorporation in melanoma primary cultures and cell lines; assay type: cell-based
# Method: (§1) Human foreskin melanocytes (Promocell) were grown in serum-free M2 medium (Promocell). WM-115, SK-MEL-2, SK-MEL-5, MeWo and COS7 cell lines (ATCC) were grown as specified. Tumors were chopped, incubated in E-MEM (Sigma) containing collagenase A (300 U/ml, Worthington) and hyaluronidase (100 U/ml, Sigma), mechanically dissociated and plated in E-MEM with 10% FBS, 1 mM sodium pyruvate (GIBCO) and 1 ng/ml EGF (GIBCO). […] All melanoma samples and BCC were obtained following approved protocols.
# (§2) Commercial N-SHH (R&D Systems) was used at 100 nM. 5E1 anti-SHH blocking antibody (Hybridoma Bank, University of Iowa) was used at 10 μg/ml. Forskolin (FK) and 1,9-dideoxyforskolin (ddFK; Sigma) were used at 50 μM. […] MEK-1 (U0126; Promega), EGFR (AG1478; Biosource) and AKT (SH6; Alexis corporation) inhibitors were used at 1, 10, and 40 μM, respectively, dissolved in DMSO. Drug treatments were for 48 h in 2.5% serum. BrdU (Sigma) was pulsed at 4 μg/ml for 2 h before fixation followed by immunodetection with anti-BrdU antibodies (BD Biosciences). The number of viable cells was assessed by Trypan blue exclusion (Promega).
# [2] = test system: GLI1-transfected WM-115, SK-MEL-2 and SK-MEL-5; assay: GLI1-transfection enhanced BrdU incorporation, treatment with inhibitors; assay type: cell-based, human; conditions: 48 h treatment
# Method: as §2
# [3] = test system: EJ-1 human bladder carcinoma; conditions: in vivo; cited from earlier work
# [4] = test system: HRAS^V12G or NRAS^Q61K transfected WM-115 and SK-Mel2 cells; assay: oncogenic RAS-transfection enhanced BrdU incorporation (Example 2); assay type: cell-based, human
# Method: Forskolin (FK) and 1,9-dideoxyforskolin (ddFK; Sigma) were used at 50 μM. MEK-1 (U0126; Promega), and AKT (SH6; Alexis corporation) inhibitors were used at 1 and 40 μM, respectively, dissolved in DMSO. U0126 and SH6 were used for 1 h, 48 h post-transfection. Leptomycin B (LMB; Sigma) was used at 5 nM for 6 h, 48 h post-transfection. BrdU (Sigma) was pulsed at 4 μg/ml for 2 h before fixation followed by immunodetection with anti-BrdU antibodies (BD Biosciences). The number of viable cells was assessed by Trypan blue exclusion (Promega). […] (SEQ ID NO: 57) (target-validated from Ambion). […] SEQ ID NO: 58) (Sanchez, P. et al. Inhibition of prostate cancer proliferation by interference with SONIC HEDGEHOG-GLI1 signaling. Proc. Natl. Acad. Sci. USA. 101, 12561-12566 (2004)). siRNA transfections (0.2 μM) were performed with Oligofectamine (Invitrogen) for 48 h.
# Cells were transfected (3 μg/p35 plate) with myc-tagged full-length CMV expression vectors with FUGENE (Roche). Transfections were at equimolar amounts unless otherwise specified with combinations of pCS2-Myc-tagged human GLI1, GLI3, GLI3R (GLI3C′ΔClaI), frog Gli2R (Gli2C′) (Ruiz i Altaba, A. Gli proteins encode context-dependent positive and negative functions: implications for development and disease. Development 126, 3205-3216 (1999), pCMV-HA-tagged GLI1 (ref. 20), HRAS^V12G (from A. Pellicer), NRAS^Q61K (Ackermann, J. et al. Metastasizing melanoma formation caused by expression of activated N-RasQ61K on an INK4a-deficient background. Cancer Res. 65, 4005-4011 (2005)), activated (myristoylated) myc-tagged AKT1 (Upstate), activated MEK1 (p45MAPKK^S222D; from J. Pouyssegur), Myc-tagged SUFUH (Kogerman, P. et al. Mammalian suppressor-of-fused modulates nuclear-cytoplasmic shuttling of Gli-1. Nat Cell Biol. 1, 312-319 (1999)), and pCMV-eGFP or pCMV-lacZ.
# [5] = test system: Nude Harlan Sprague-Dawley Mice/lung (A-549, Calu-1) tumors; conditions: 70 mg/kg/d; cited from earlier work
# Nude mice/HIG3T3 = conditions: nude mice transplanted with activated H-Ras-transformed HIG3T3 cells; cited from earlier work
# [6] = test system: GLI1 transcriptional activity; assay: GLI luciferase reporter assay (7 GLI binding site reporter) in COS7 cells; assay type: cell-based, monkey
# human cancer cells = conditions: cited from earlier work
# [7] = test system: ras-transformed rat kidney cell; conditions: cited from earlier work
# [8] = test system: WM-115 subcutaneous tumors; assay: subcutaneous WM-115 melanoma xenografts in nude mice; assay type: in vivo, mouse; conditions: n=2 treated vs n=2 carrier
# Method: (§5) 5×10^5 MeWo/LacZ, WM-115 or 10^6 primary Me-3 melanoma cells were inoculated subcutaneously (s.c.) at two sides per adult male (NMRI-nu) nude mouse and the tumors were measured daily. […] For metastasis studies, 1×10^6 Mewo/LacZ cells were injected into the tail vein (i.v.) of adult male nude mice. […] At the end of the treatment the lungs were dissected and stained with XGal.
# Mewo cells = assay: BrdU incorporation, AKT inhibitor plus cyclopamine; assay type: cell-based, human; conditions: 5 μM cyclopamine plus 20 μM SH6, 48 hours
# Method: (§3) Cell proliferation was assessed after incubation with BrdU as described.
# [9] = test system: WM115, SK-MEL-2, SK-MEL-5 and MeWo cell lines; assay: BrdU incorporation in melanoma cell lines; assay type: cell-based, human
# Method: as §1, §2
# WM115 cells = assay: BrdU incorporation, MEK inhibitor plus cyclopamine; assay type: cell-based, human; conditions: 5 μM cyclopamine plus 1 μM U0126, 48 hours
# Method: as §3
# MeWo/LacZ melanomas = assay: subcutaneous MeWo/LacZ melanoma xenografts in nude mice; assay type: in vivo, mouse
# Method: as §5
# p-ERK, p-AKT = assay: levels of p-ERK or p-AKT in melanoma cells; assay type: cell-based, human; conditions: cyclopamine treatment
# [10] = test system: NRAS^Q61K mouse melanoma primary cultures; assay: BrdU incorporation in primary cultures of Tyr-NRAS^Q61K; Ink4a−/− mouse melanomas; assay type: cell-based; conditions: 10 μM
# Method: WM-115, SK-MEL-2 and COS7 cell lines (ATCC) were grown according to the specifications of the provider. The primary Me-3 melanoma (Stecca, B. et al. Melanocyte proliferation and melanoma growth, recurrence and metastasis require sustained SONIC HEDGEHOG-GLI signaling. Submitted. (2006)) was grown in E-MEM with 10% FBS (Hyclone), 1 mM sodium pyruvate (GIBCO) and 1 ng/ml EGF (GIBCO). Proliferating human melanocytes from foreskin (Promocell) were grown in M2 media (Promocell). Melanomas from ±6 month-old Tyr→NRAS^Q61K; Ink4a^−/− mice on a light coat color Dct^−/− background^13 were collected from the skin and lymph nodes. Tumors were dissociated and grown in E-MEM with 10% FBS, 1 mM sodium pyruvate (GIBCO) and 1 ng/ml EGF (GIBCO). Mouse embryonic fibroblasts (MEFs) were prepared from E14.5 Swiss Webster mouse embryos and grown in DMEM with 10% FBS.
# Forskolin (FK) and 1,9-dideoxyforskolin (ddFK; Sigma) were used at 50 μM. MEK-1 (U0126; Promega), and AKT (SH6; Alexis corporation) inhibitors were used at 1 and 40 μM, respectively, dissolved in DMSO. U0126 and SH6 were used for 1 h, 48 h post-transfection. Leptomycin B (LMB; Sigma) was used at 5 nM for 6 h, 48 h post-transfection. BrdU (Sigma) was pulsed at 4 μg/ml for 2 h before fixation followed by immunodetection with anti-BrdU antibodies (BD Biosciences). The number of viable cells was assessed by Trypan blue exclusion (Promega). […]
# [11] = test system: Proliferating melanocytes from human foreskin; assay: BrdU incorporation in proliferating melanocytes; assay type: cell-based
# Method: as §1, §2
# [12] = test system: GLI1, PTCH1, BMI1, FOXM1, MITFM expression; assay: qPCR gene expression in melanoma cultures; assay type: cell-based, human
# Method: (§4) Real-time quantitative PCR amplifications with different primers (Suppl. Materials) were carried out at 60° C. on an Opticon machine (MJ Research) using iQ™ SYBR Green supermix (Biorad) and values calculated using the standard curve method.
# as §2
# WM-115, Me-3 and MeWo = assay: long-term cyclopamine treatment and recovery of cultures; assay type: cell-based, human; conditions: ten days, drug-containing media anew every 2 days
# [13] = test system: GLI1, HIP and MITFM expression; assay: qPCR gene expression in proliferating melanocytes after SHH; assay type: cell-based, human; conditions: SHH treatment, 8 h, qPCR normalized to GAPDH
# Method: as §4
# [14] = test system: primary cultures Me-1 to Me-5 (melanoma metastases); assay: BrdU incorporation in melanoma primary cultures; assay type: cell-based, human; conditions: exogenous recombinant SHH ligand, 48 h; fraction of five primary cultures
# Method: as §1, §2
compound,measurement,setting,value
COc1cc2ncnc(Nc3cccc(Cl)c3)c2cc1OC [AG1428],BrdU incorporation,"[1]; 48 h, all four melanoma cell lines tested and Me-3",decreased BrdU incorporation
same,effect on GLI1-enhanced proliferation,[2],reversed
COC(=O)[C@H](CCSC)NC(=O)[C@H](/C=C\[C@@H](/C=C/[C@@H](N)CS)C(C)C)Cc1ccccc1 [B1086],tumor growth,[3],inhibit tumor growth
C=C[C@@]1(C)CC(=O)[C@]2(O)[C@@]3(C)[C@@H](O)CCC(C)(C)[C@@H]3[C@H](O)[C@H](OC(C)=O)[C@@]2(C)O1 [Forskolin],inhibition of oncogenic RAS-induced proliferation,[4]; SK-Mel2,100%
same,inhibition of oncogenic RAS-induced proliferation,[4]; WM-115,~80%
CC(C)C[C@H](NC(=O)c1ccc(NC[C@@H](N)CS)cc1-c1cccc2ccccc12)C(=O)O [GGTI-297],GROWTH INHIBITION,[5],56%-70%
C[C@H]([C@H](C/C=C/c1nc2ccccc2o1)c1ccc2c(c1)OCO2)N(Cc1ccc2ccccc2c1)C(=O)[C@H]1OC(C(=O)O)(C(=O)O)O[C@H]1C(=O)O [J-104871],tumor growth,Nude mice/HIG3T3,suppressed tumor growth
CCC(=C/[C@H](C)C/C=C/C(C)=C/[C@@H](C)C(=O)[C@@H](C)[C@H](O)[C@@H](C)C/C(C)=C/C(=O)O)/C=C/[C@@H]1OC(=O)C=C[C@@H]1C [LMB],increase of GLI1-induced luciferase activity,"[6]; GLI1 alone, 4 h treatment with LMB",~3 fold
same,further increase in GLI activity,"[6]; cells coexpressing GLI1 and NRAS^Q61K, LMB treatment",~3 fold
Cc1ccc(S(=O)(=O)N[C@@H](Cc2ccccc2)C(=O)CCl)cc1 [TPCK],anchorage-independent clonogenic growth,human cancer cells,almost completely block
same,cell growth,[7],potently inhibit
CC1=C2C[C@H]3[C@@H](CC=C4C[C@@H](O)CC[C@@]43C)[C@@H]2CC[C@]12O[C@@H]1C[C@H](C)CN[C@H]1[C@H]2C [cyclopamine],response of BrdU incorporation to cyclopamine,"[1]; 24-48 h, dose-dependent, compared with tomatidine",all responded
same,tumor response to cyclopamine treatment,[8],lead to their disappearance
same,effect on BrdU incorporation of suboptimal cyclopamine combined with SH6,Mewo cells,significantly effective
same,sensitivity of tumor-derived MeWo/lacZ cells to cyclopamine in vitro versus parental cells,[9]; cells from systemically treated tumors,same sensitivity
same,effect on BrdU incorporation of suboptimal cyclopamine combined with U0126,WM115 cells,significantly effective
same,recurrence after sustained treatment,"MeWo/LacZ melanomas; 20 d treatment after tumor disappearance, 42 additional days",no recurrences
same,tumor response to injection into the tumor,"MeWo/LacZ melanomas; cyclodextrin-complexed cyclopamine injected into the tumor, tumors ±10 mm^3 or ±65 mm^3, vs cyclodextrin alone",rapid regression and disappearance of the tumors
same,cured tumors containing small pockets of β-gal+ tumor cells or groups of single cells,MeWo/LacZ melanomas; five cured tumors taken 1-2 days after macroscopic disappearance,⅘
same,time to tumor reappearance,MeWo/LacZ melanomas; from the end of 3 d and 10 d additional treatment after tumor disappearance,2 to 7 days
same,decrease in tumor volume,"MeWo/LacZ melanomas; systemic treatment of large subcutaneous tumors (±65 mm^3), 16 days, vs carrier-only",33%
same,levels of p-ERK or p-AKT,"p-ERK, p-AKT",did not alter
same,inhibition of oncogenic RAS-enhanced BrdU incorporation,[4]; WM-115 and SK-Mel2,65-75%
same,number of doubly BrdU+/GFP+ cells,"[10]; two primary cultures (1-PM2, 1-LNM5), GFP plus control plasmid",decreased the number of doubly BrdU+/GFP+ cells
same,induction of the senescence marker SA-β-gal,[11]; cyclopamine treatment,did not induce
same,GLI1 expression,[12]; 24-48 h cyclopamine treatment,decreased GLI1 expression
same,PTCH1 expression,"[12]; cyclopamine 8 h, 3 primary cultures tested",inhibited PTCH1 expression
same,"Expression of BMI1, FOXM1 and MITFM","[12]; cyclopamine 8 h, primary cultures",repressed
same,BrdU incorporation after long-term treatment,"WM-115, Me-3 and MeWo",inhibit all BrdU incorporation
C[C@H]1CC[C@]2(NC1)O[C@H]1C[C@H]3[C@@H]4CC[C@H]5C[C@@H](O)CC[C@]5(C)[C@H]4CC[C@]3(C)[C@H]1[C@@H]2C [tomatidine],proliferation of all 12 primary cultures,[10]; 48 h,no effect
"SHH: Commercial N-SHH (R&D Systems), recombinant SHH ligand",induction of GLI1 expression,[13],2-3 fold
same,induction of HIP expression,[13],2-3 fold
same,induction of MITFM expression,[13],6 fold
same,primary cultures with increased BrdU incorporation above a basal level (10%),[14],⅘
same,cell lines with increased BrdU incorporation above a basal level (10%),"[9]; exogenous recombinant SHH ligand, 48 h, fraction of four cell lines",¾
same,increase in proliferation,"[11]; recombinant SHH ligand, 48 h, over PBS",⅓
